What all share (assay type): biochemical
The target in one experiment is Trk C (Homo sapiens, UniProt Q16288). Nature of the experiment: HotSpot kinase assay against Trk C. Conditions: HotSpot 33P assay, ATP 10 μM-30 μM. The protocol:
(§1) Kinase assays were performed using test compounds against a panel of Trk kinases: Trk A; Trk B; and Trk C. Each compound was tested at a concentration of 0.1 μM in single duplicate mode against the three kinases. Compounds were prepared as 10 mM stock solutions in DMSO prior to use in the assay. The control compound, staurosporine, was tested at 10 concentrations with three-fold serial dilution starting at 20 μM. IC50 values and curve fits were obtained using Prism (GraphPad Software). IC50 values were determined for staurosporine for comparison.
(§2) The screening was performed using the “HotSpot” assay platform. The assay measures the conversion of a peptide substrate to ^33P-labelled phosphorylated product. Briefly, specific kinase/substrate pairs along with required cofactors were prepared in reaction buffer. Specifically, the substrate was prepared in reaction buffer (20 mM Hepes, pH 7.5; 10 mM MgCl2; 1 mM EGTA; 0.02% Brij35; 0.02 mg/mL BSA; 0.1 mM Na3VO4; 2 mM DTT; 1% DMSO), followed by delivery of any required cofactor to the resulting substrate solution. The corresponding kinase was delivered into the substrate solution and the reaction mixture was mixed gently. Compound was delivered into the reaction mixture, followed 15-20 min later by addition of a mixture of ATP (Sigma, St. Louis Mo.) and ^33P ATP (specific activity 0.01 μCi/μL final; Perkin Elmer, Waltham, Mass.) to a final concentration of 10 μM-30 μM to initiate the reaction. Reactions were carried out at RT for 120 min, followed by spotting of the reactions onto P81 ion exchange filter paper (Whatman #3698-915; Whatman Inc., Piscataway, N.J.). Unbound phosphate was removed by extensive washing of filters in 0.75% phosphoric acid. […] The percent of enzyme inhibition was calculated based on the percent of remaining kinase activity.

Another experiment deals with Trk A (Homo sapiens, UniProt P04629). The experiment is described as follows: HotSpot kinase assay against Trk A. Conditions: HotSpot 33P assay, ATP 10 μM-30 μM. As for the experimental part:
as §1, §2

The target in a further experiment is T1, activated IR (Homo sapiens, UniProt P06213).
T1 construct: purchased Millipore 14-803
T1 sequence (P06213 28-1382): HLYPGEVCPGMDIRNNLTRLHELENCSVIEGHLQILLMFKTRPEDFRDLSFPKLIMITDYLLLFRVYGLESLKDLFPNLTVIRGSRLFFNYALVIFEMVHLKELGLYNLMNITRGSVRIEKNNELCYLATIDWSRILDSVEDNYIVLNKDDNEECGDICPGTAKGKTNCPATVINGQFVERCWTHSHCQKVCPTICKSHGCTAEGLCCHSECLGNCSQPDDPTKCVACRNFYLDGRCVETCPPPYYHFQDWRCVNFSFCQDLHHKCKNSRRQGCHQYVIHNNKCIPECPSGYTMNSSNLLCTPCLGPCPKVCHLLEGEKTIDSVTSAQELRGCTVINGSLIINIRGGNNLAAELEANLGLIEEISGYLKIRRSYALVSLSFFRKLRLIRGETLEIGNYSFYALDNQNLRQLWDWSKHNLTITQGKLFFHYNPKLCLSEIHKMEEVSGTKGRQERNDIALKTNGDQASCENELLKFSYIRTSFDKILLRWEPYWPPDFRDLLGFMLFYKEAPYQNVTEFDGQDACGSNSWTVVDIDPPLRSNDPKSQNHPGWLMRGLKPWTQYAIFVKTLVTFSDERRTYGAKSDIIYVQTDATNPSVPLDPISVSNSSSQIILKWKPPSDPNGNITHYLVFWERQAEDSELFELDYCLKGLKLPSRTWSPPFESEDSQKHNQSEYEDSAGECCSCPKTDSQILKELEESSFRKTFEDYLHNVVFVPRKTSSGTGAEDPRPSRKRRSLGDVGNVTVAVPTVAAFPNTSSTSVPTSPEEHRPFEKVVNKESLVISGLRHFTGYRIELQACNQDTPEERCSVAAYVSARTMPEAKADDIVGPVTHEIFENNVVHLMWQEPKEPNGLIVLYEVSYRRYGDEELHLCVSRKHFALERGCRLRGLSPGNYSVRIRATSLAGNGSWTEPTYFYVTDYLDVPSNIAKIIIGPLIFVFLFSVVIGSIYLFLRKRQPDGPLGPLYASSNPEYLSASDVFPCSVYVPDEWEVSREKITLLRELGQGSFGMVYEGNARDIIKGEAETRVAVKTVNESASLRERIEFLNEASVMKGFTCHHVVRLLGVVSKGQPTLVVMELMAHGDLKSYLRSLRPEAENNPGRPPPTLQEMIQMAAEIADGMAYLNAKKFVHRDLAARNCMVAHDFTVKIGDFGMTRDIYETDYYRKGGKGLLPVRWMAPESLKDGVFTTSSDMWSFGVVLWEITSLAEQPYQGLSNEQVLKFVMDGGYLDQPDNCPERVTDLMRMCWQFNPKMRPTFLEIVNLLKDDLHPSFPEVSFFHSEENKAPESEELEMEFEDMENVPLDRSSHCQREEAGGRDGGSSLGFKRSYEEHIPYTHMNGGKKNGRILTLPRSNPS
The experiment is described as follows: In vitro IR enzymatic assay (ADP-Glo). Conditions: ATP 50 μM; for inhibition at 1 µM: compound 1 μM; for inhibition at 3 µM: compound 3 μM; for inhibition at 30 µM: compound 30 μM. As for the experimental part: (§3) Inhibition of IGF-1R and IR kinases by compounds described herein were tested. The IC50 values were measured in vitro using an ADP-Glo kinase assay Kit (Promega). For the IGF-1R assay, active recombinant IGF-1R (Millipore #14-802) was used at 1 ng/reaction, the substrate IGF-1R tide (Millipore #12-527) was used at 125 μM and ATP was used at 100 μM. For the IR assay, active recombinant IR (Millipore #14-803) was used at 1 ng/reaction, the substrate Axl tide (Millipore #12-516) was used at 125 μM and ATP at 50 μM. Kinase reactions in both assays were conducted at 30° C. for 20 min with increasing concentrations of the test compounds.
(§4) The assay results as the percent inhibition of binding are presented in Tables B2 and B3 for IGF-1R and IR respectively.

The target of another experiment is Trk B (Homo sapiens, UniProt Q16620). The experiment is described as follows: HotSpot kinase assay against Trk B. As to conditions: HotSpot 33P assay, ATP 10 μM-30 μM. As for the experimental part:
as §1, §2

A further experiment addresses T2, activated IGF-1R (Homo sapiens, UniProt P08069).
T2 construct: purchased Millipore 14-802
Nature of the experiment: In vitro IGF-1R enzymatic assay (ADP-Glo). Conditions: ATP 100 μM; for inhibition at 1 µM: compound 1 μM; for inhibition at 3 µM: compound 3 μM; for inhibition at 10 µM: compound 10 μM; for inhibition at 30 µM: compound 30 μM. The protocol: as §3, §4
(In ADP-Glo the light output rises with the ADP produced.)

Chain of Trk B (Q16620 32-822): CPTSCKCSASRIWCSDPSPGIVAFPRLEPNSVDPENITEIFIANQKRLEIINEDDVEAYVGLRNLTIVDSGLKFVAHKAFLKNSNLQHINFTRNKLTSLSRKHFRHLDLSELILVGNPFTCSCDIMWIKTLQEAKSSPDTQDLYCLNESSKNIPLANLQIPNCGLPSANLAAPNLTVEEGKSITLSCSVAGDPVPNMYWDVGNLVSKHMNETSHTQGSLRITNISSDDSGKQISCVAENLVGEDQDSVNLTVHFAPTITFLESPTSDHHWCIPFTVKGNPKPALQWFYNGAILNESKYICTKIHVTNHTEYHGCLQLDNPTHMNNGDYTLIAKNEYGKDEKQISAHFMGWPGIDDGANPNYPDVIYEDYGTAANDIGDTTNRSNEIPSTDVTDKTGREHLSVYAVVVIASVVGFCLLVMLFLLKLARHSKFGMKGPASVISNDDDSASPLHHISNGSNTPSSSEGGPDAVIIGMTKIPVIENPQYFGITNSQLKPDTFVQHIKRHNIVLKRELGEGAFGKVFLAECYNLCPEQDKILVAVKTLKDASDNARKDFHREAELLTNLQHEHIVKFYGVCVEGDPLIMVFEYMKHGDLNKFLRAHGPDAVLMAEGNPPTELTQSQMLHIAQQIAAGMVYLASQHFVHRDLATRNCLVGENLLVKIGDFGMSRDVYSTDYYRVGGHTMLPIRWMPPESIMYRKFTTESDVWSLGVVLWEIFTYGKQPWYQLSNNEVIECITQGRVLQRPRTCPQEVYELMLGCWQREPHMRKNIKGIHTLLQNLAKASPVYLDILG
Chain of Trk C (Q16288 32-839): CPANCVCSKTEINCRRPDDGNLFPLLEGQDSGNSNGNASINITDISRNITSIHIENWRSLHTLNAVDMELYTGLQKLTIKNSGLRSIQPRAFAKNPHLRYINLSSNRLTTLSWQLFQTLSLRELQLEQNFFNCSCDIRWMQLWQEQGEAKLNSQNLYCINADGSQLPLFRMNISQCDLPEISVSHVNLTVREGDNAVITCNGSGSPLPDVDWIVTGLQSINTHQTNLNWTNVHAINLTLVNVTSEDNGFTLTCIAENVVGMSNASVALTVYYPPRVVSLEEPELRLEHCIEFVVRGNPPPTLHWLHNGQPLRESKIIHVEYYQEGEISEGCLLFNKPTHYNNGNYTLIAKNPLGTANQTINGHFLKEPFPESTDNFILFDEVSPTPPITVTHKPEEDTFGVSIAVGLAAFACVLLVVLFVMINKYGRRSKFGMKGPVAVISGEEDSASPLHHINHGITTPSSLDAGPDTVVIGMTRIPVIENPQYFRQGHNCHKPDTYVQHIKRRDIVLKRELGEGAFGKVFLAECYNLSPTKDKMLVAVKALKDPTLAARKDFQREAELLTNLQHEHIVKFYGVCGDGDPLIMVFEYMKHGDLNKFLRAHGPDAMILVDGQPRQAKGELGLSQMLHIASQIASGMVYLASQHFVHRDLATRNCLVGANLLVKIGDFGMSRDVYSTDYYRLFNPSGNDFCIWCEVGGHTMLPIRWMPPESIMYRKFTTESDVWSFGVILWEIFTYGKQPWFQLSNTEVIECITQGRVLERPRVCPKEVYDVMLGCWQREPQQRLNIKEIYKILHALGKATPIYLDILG
T2 sequence (P08069 31-1367): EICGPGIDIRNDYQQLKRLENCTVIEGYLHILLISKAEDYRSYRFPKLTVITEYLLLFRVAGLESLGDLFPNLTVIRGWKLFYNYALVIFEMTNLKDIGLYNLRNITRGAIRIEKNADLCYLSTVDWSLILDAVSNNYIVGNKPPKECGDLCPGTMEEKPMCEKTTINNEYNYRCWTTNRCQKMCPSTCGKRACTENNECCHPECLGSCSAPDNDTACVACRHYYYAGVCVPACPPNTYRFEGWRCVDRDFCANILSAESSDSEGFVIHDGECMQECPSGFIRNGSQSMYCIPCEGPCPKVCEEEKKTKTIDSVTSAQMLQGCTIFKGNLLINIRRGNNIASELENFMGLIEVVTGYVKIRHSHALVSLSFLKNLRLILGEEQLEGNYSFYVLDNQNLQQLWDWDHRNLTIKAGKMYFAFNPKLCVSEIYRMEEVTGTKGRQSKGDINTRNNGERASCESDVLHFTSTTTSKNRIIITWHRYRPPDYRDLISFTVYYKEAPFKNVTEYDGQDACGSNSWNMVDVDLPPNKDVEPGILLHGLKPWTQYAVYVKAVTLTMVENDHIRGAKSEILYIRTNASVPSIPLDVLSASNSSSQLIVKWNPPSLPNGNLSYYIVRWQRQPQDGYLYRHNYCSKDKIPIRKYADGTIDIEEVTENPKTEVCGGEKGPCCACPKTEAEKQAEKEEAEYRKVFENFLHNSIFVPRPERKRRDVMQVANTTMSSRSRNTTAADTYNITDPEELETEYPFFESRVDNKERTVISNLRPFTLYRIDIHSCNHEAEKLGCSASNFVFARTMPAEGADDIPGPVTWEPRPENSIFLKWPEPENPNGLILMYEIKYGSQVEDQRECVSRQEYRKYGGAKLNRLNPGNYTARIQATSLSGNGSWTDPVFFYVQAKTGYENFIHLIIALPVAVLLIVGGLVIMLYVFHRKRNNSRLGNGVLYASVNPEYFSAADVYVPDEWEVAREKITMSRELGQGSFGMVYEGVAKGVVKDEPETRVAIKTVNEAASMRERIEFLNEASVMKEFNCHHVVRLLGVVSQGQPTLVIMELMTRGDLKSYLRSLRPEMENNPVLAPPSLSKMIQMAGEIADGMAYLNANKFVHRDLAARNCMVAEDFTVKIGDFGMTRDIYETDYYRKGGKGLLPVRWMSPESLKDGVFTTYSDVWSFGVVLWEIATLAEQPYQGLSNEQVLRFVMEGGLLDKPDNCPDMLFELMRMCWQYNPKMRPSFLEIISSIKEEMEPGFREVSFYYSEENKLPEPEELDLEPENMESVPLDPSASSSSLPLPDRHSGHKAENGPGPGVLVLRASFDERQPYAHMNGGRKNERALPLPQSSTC
Chain of Trk A (P04629 33-796): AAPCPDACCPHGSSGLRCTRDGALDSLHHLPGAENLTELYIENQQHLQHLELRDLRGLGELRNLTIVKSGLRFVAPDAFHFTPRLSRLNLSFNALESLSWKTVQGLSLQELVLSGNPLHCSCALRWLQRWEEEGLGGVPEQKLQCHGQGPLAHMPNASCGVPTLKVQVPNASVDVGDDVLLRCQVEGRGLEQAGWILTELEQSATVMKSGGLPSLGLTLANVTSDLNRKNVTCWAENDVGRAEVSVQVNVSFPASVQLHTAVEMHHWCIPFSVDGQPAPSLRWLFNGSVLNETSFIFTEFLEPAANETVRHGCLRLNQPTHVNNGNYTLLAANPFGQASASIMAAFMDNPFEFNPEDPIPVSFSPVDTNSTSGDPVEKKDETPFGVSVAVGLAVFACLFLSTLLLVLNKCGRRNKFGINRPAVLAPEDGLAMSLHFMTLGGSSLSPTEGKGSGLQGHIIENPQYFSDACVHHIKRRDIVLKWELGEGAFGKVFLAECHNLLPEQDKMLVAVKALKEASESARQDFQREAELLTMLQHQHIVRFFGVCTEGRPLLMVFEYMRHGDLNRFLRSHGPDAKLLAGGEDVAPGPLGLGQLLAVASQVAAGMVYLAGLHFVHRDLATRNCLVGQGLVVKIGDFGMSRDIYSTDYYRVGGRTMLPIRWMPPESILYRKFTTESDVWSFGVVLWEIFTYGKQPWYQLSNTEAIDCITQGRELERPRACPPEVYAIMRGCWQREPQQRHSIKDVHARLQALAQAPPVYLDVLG

Compound `CN1CCN(C(=O)[C@@H]2CCCN2c2nc3c(c(Nc4cc(C5CCCC5)n[nH]4)n2)CCC3)CC1=O` [136b, 4-[(2S)-1-[4-[(3-cyclopentyl-1H-pyrazol-5-yl)amino]-6,7-dihydro-5H-cyclopenta[d]pyrimidin-2-yl]pyrrolidine-2-carbonyl]-1-methyl-piperazin-2-one] gave a concentration for half-maximal inhibition (IC50) against Trk C of 42.4 nM. The compound also came in with a 50% inhibitory concentration (IC50) at Trk A of 1730 nM. On activated IR, the inhibition at 1 µM is -2%, the inhibition at 3 µM is 21% and the inhibition at 30 µM was 72%. In addition, half-maximal inhibition against Trk B (IC50) was put at 106 nM. At activated IGF-1R, the inhibition at 1 µM came to 15%, the inhibition at 3 µM was determined as 12%, the inhibition at 10 µM turned out to be 28% and the inhibition at 30 µM was 63%.
At Trk C, `CC(C)c1cc(Nc2nc(N3CCC[C@H]3C(=O)N3CC(F)(F)C(F)(F)C3)nc3c2CCC3)n[nH]1` [112b, (S)-(1-(4-(5-isopropyl-1H-pyrazol-3-ylamino)-6,7-dihydro-5H-cyclopenta[d]pyrimidin-2-yl)pyrrolidin-2-yl)(3,3,4,4-tetrafluoropyrrolidin-1-yl)methanone] showed an IC50 of 1.3 nM. The same compound showed a half-inhibitory concentration (IC50) at Trk A of 109 nM. On activated IR, the inhibition at 1 µM was determined as 12%, the inhibition at 3 µM is 36% and the inhibition at 30 µM was determined as 89%. At Trk B, this compound came in with an IC50 of 4 nM. For the same compound, on activated IGF-1R, the inhibition at 3 µM amounted to 36%, the inhibition at 10 µM was 65% and the inhibition at 30 µM turned out to be 86%.
Consider `CN1CCN(C(=O)[C@H]2CCCN2c2nc3c(c(Nc4cc(C5CCCC5)[nH]n4)n2)CCC3)CC1` [134a, (R)-(1-(4-(5-cyclopentyl-1H-pyrazol-3-ylamino)-6,7-dihydro-5H-cyclopenta[d]pyrimidin-2-yl)pyrrolidin-2-yl)(4-methylpiperazin-1-yl)methanone], for which the half-maximal inhibitory concentration (IC50) on Trk C worked out at 44.4 nM; against Trk A, 32 nM; at Trk B, 90 nM. The inhibition at 1 µM was found to be 80% against activated IR and 73% at activated IGF-1R.
In the case of `CN(C)C(=O)[C@H]1CCCN1c1nc2c(c(Nc3cc(C4CCOCC4)[nH]n3)n1)CCC2` [91a, (R)—N,N-dimethyl-1-(4-((5-(tetrahydro-2H-pyran-4-yl)-1H-pyrazol-3-yl)amino)-6,7-dihydro-5H-cyclopenta[d]pyrimidin-2-yl)pyrrolidine-2-carboxamide], the concentration for half-maximal inhibition (IC50) against Trk C came out at 180 nM; against Trk A it was 1440 nM; on Trk B it was 403 nM. For the same compound, the values for the inhibition at 1 µM against activated IR and on activated IGF-1R were 5% and 6%, respectively. In addition, the results for the inhibition at 3 µM against activated IR and on activated IGF-1R were 16% and 14%, respectively. For the same compound, the inhibition at 30 µM against activated IR was 45%; on activated IGF-1R, 38%. Also, the inhibition at 10 µM against activated IGF-1R was 14%.
As to `CC(C)c1cc(Nc2nc(N3CCC[C@@H]3C(=O)N3CCCC3)nc3c2CCC3)n[nH]1` [138a, (R)-(1-(4-((5-isopropyl-1H-pyrazol-3-yl)amino)-6,7-dihydro-5H-cyclopenta[d]pyrimidin-2-yl)pyrrolidin-2-yl)(pyrrolidin-1-yl)methanone], the IC50 was determined as 105 nM against Trk C, 878 nM at Trk A and 246 nM against Trk B. The inhibition at 1 µM at activated IR amounted to 37%. For the same compound, the figures for the inhibition at 3 µM against activated IR and against activated IGF-1R were 61% and 62%, respectively. The inhibition at 30 µM against activated IR was determined as 96%; at activated IGF-1R, 95%. Further, the inhibition at 10 µM against activated IGF-1R came out at 83%.

As a reminder, the IC50 is the concentration needed to halve the response being measured. A word on the inhibition: it is the relative decrease from the control value, in per cent.

The record behind these values is patent US20170137410A1, “FUSED CYCLOALKYL-PYRIMIDINE COMPOUNDS AND USES THEREOF” (Medivation Technologies, Inc., priority 2014, published 2017).
